Laboratory results published in the supplement of paper PMC5908809.

Tests used:
[1] = tested on: normal NK cells expanded with K562-aAPC; experiment: percent inhibition of viability; higher = more inhibition; conditions: 72 h, IL-2 2.5 ng/mL
Experimental: (§1)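 Drug sensitivity and resistance testing on K562-aAPC-expanded normal NK cells: 5 concentrations (10-fold steps over a 10,000-fold range), 72 h at 37 °C, viability by CellTiter-Glo normalised to DMSO and benzethonium chloride controls; DSS from the fitted curve.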

[2] = tested on: DERL-7 (IL-2 2.5 ng/mL); experiment: as above; conditions: 72 h
[3] = tested on: IMC-1 (IL-2 20 ng/mL); experiment: as above; conditions: 72 h
[4] = tested on: KAI3 (IL-2 2.5 ng/mL); experiment: as above; conditions: 72 h
[5] = tested on: KHYG-1 (IL-2 2.5 ng/mL); experiment: as above; conditions: 72 h
[6] = tested on: NK-92 (IL-2 2.5 ng/mL); experiment: as above; conditions: 72 h
[7] = tested on: NK-YS (IL-2 2.5 ng/mL); experiment: as above; conditions: 72 h
[8] = tested on: NKL (IL-2 2.5 ng/mL); experiment: as above; conditions: 72 h
[9] = tested on: SNK-6 (IL-2 2.5 ng/mL); experiment: as above; conditions: 72 h
[10] = tested on: YT (IL-2 2.5 ng/mL); experiment: as above; conditions: 72 h
[11] = tested on: normal primary NK cells, pool 1 (3 donors) (IL-2 2.5 ng/mL); experiment: as above; conditions: 72 h
[12] = tested on: normal primary NK cells, pool 1 (3 donors), resting (IL-2 0 ng/mL); experiment: as above; conditions: 72 h
[13] = tested on: normal primary NK cells, pool 2 (3 donors) (IL-2 2.5 ng/mL); experiment: as above; conditions: 72 h
[14] = tested on: normal primary NK cells, pool 3 (3 donors) (IL-2 2.5 ng/mL); experiment: as above; conditions: 72 h
[15] = tested on: normal NK cells expanded with K562-aAPC; experiment: drug sensitivity score (DSS) (DSS units); higher = more sensitive; extreme values may be limits of the assay; conditions: 72 h; IL-2 2.5 ng/mL
Experimental: as §1

[16] = tested on: DERL-7 (IL-2 2.5 ng/mL); experiment: as above; conditions: 72 h
[17] = tested on: IMC-1 (IL-2 20 ng/mL); experiment: as above; conditions: 72 h
[18] = tested on: KAI3 (IL-2 2.5 ng/mL); experiment: as above; conditions: 72 h
[19] = tested on: KHYG-1 (IL-2 2.5 ng/mL); experiment: as above; conditions: 72 h
[20] = tested on: NK-92 (IL-2 2.5 ng/mL); experiment: as above; conditions: 72 h
[21] = tested on: NK-YS (IL-2 2.5 ng/mL); experiment: as above; conditions: 72 h
[22] = tested on: NKL (IL-2 2.5 ng/mL); experiment: as above; conditions: 72 h
[23] = tested on: SNK-6 (IL-2 2.5 ng/mL); experiment: as above; conditions: 72 h
[24] = tested on: YT (IL-2 2.5 ng/mL); experiment: as above; conditions: 72 h
[25] = tested on: normal primary NK cells, pool 1 (3 donors) (IL-2 2.5 ng/mL); experiment: as above; conditions: 72 h
[26] = tested on: normal primary NK cells, pool 1 (3 donors), resting (IL-2 0 ng/mL); experiment: as above; conditions: 72 h
[27] = tested on: normal primary NK cells, pool 2 (3 donors) (IL-2 2.5 ng/mL); experiment: as above; conditions: 72 h
[28] = tested on: normal primary NK cells, pool 3 (3 donors) (IL-2 2.5 ng/mL); experiment: as above; conditions: 72 h

CN1CCN(C2CCN(C(=O)Nc3cc(Oc4ccc(NC(=O)C5(C(=O)Nc6ccc(F)cc6)CC5)c(F)c4)ccn3)CC2)CC1 [Golvatinib] (max concentration tested 2500 nM)
percent inhibition of viability [%]
Conditions	0.25 nM	2.5 nM	25 nM	250 nM	2500 nM
[1]	-2.77	-6.95	-4.34	5.19	23.6
[2]	-1.96	-0.71	1.22	-0.87	15.2
[3]	-9.45	-2.35	-2.39	5.73	3.69
[4]	-7	-3.9	0.53	6.28	24
[5]	-11.8	-6.81	-7.1	2.14	52.1
[6]	-11.7	-1.86	-7.52	14.7	44.5
[7]	-10.5	-6.07	-5.82	0.77	12.1
[8]	-12.1	-3.62	2.15	8.61	20.8
[9]	-15.4	-12	-10.5	-8.86	2.23
[10]	-6.16	-1.34	-3.26	2.58	22.1
[11]	-2.39	15	8.72	9.1	11.9
[12]	-3.44	12.3	5.91	13.5	11.9
[13]	-0.98	2.77	11.2	-2.79	3.25
[14]	-5.97	4.22	1.77	0.21	-2.7

Conditions	drug sensitivity score
[15]	1.59
[16]	0.2
[17]	0
[18]	1.75
[19]	3.05
[20]	4.41
[21]	0.08
[22]	1.26
[23]	0
[24]	1.11
[25]	0.66
[26]	1.23
[27]	0
[28]	0

CCn1nnc2c(N3CCOCC3)nc(-c3ccc(NC(=O)Nc4ccc(C(=O)N5CCN(C)CC5)cc4)cc3)nc21 [PKI-402] (max concentration tested 2500 nM)
percent inhibition of viability [%]
Conditions	0.25 nM	2.5 nM	25 nM	250 nM	2500 nM
[1]	-5.93	-8.28	-5.99	11.4	51
[2]	-1.72	1.39	10.1	79.5	93.8
[3]	-5.86	-7.07	-15	-6.11	25.1
[4]	-2.89	-4.76	8.59	55.9	67.9
[5]	-6.21	-11	-2.81	30.4	84.9
[6]	-19.1	-16.8	-1.05	13.1	63.7
[7]	-6.47	-8.86	4.39	52	75.7
[8]	-5.68	-11.2	4.32	60	68.9
[9]	-8.78	-15.4	-7.51	33.2	54.5
[10]	-3.62	-7.8	0.22	50.5	82.6
[11]	1.41	-3.9	19.1	28.9	48.2
[12]	-7.29	0.44	14.9	31.1	26.7
[13]	-8.91	-3.82	2.65	17.3	38.4
[14]	-10.9	-4.56	0.88	11	34.4

Conditions	drug sensitivity score
[15]	4.52
[16]	15.9
[17]	0.69
[18]	11.4
[19]	8.93
[20]	5.62
[21]	10.6
[22]	11.6
[23]	6.93
[24]	10.6
[25]	7.21
[26]	7.08
[27]	3.74
[28]	3.19

O=C(Nc1c[nH]nc1-c1nc2ccc(CN3CCOCC3)cc2[nH]1)NC1CC1 [AT9283] (max concentration tested 1000 nM)
percent inhibition of viability [%]
Conditions	0.1 nM	1 nM	10 nM	100 nM	1000 nM
[1]	0.7	-5.39	3.23	57.8	65.9
[2]	0.91	0.04	7.11	81.9	98.3
[3]	-3.86	-1.55	-6.66	65.3	100
[4]	-1.1	-5.66	8.51	45.9	76.8
[5]	0.97	-2.56	0.97	83.4	96
[6]	3.17	8.69	0.17	50.1	67.7
[7]	-4.25	-5.41	-2.2	57.1	62.4
[8]	-4.9	-5.16	-3.64	38.5	64.4
[9]	13.2	8.33	13.9	73.1	96.5
[10]	0.76	-0.55	3.44	18.3	51.5
[11]	-12.6	-14	-13.3	12.2	12.7
[12]	-10.1	-11	-42.4	-105	-157
[13]	-12.3	-10.8	-12.5	0.3	9.78
[14]	-15.9	-12.2	-13.3	-0.35	9.39

Conditions	drug sensitivity score
[15]	11.1
[16]	16
[17]	13.1
[18]	9.99
[19]	15.2
[20]	9.6
[21]	10.4
[22]	8.19
[23]	15.5
[24]	4.99
[25]	0.59
[26]	0
[27]	0
[28]	0

Nc1nc(NC2CC2)cc(-c2cccc(Cl)c2Cl)n1 [TH588] (max concentration tested 25000 nM)
percent inhibition of viability [%]
Conditions	2.5 nM	25 nM	250 nM	2500 nM	25000 nM
[1]	-9.36	-5.78	-3.43	4.8	54.4
[2]	-0.31	1.28	1.11	0.06	97.7
[3]	-9.26	1.24	2.13	7.29	96.8
[4]	0.95	-6.22	2.89	42	64.7
[5]	-2.9	-3.16	5.7	58.7	107
[6]	-1.92	-6.94	2.79	72.5	101
[7]	1.83	-0.35	11.3	66.7	80.4
[8]	-9.98	-13.7	2.66	55.4	98.6
[9]	0.31	-17.3	9.99	71.7	81.9
[10]	-5.04	-2.09	4.62	56.5	101
[11]	-0.99	16	3.84	5.63	25.9
[12]	-2.99	16.5	4.87	14.2	27.3
[13]	-12	6.63	10.1	10.4	25.7
[14]	-2.82	4	7.93	2.77	13.5

Conditions	drug sensitivity score
[15]	3.67
[16]	5.47
[17]	6.5
[18]	8.66
[19]	12.6
[20]	14.2
[21]	13.8
[22]	12.1
[23]	14.5
[24]	12.3
[25]	1.81
[26]	2.68
[27]	2.06
[28]	0.02

O=C(NOC[C@H](O)CO)c1ccc(F)c(F)c1Nc1ccc(I)cc1F (max concentration tested 1000 nM)
percent inhibition of viability [%]
Conditions	0.1 nM	1 nM	10 nM	100 nM	1000 nM
[1]	-1.9	-4.6	-6.15	-9.26	-3.18
[2]	102	5.21	16.2	22.4	38.7
[3]	-4.97	0.45	-4.28	-5.8	-9.8
[4]	-0.87	5.85	13.8	15.7	22.6
[5]	-3.39	0.89	14.1	40.9	55
[6]	-5.72	-7.22	-10.3	-30.8	-12.8
[7]	-5.52	-3.02	-1.28	2.92	8.84
[8]	-14.2	-2.12	27.4	41.5	59.1
[9]	4.76	22	-8.5	-17.1	-28.3
[10]	-2.67	-1.04	-2.4	1.31	4.12
[11]	-2.22	-8.03	2.53	15.6	18
[12]	2.14	0.69	1.05	6.05	7
[13]	-3.98	-4.69	-0.06	-5.3	5.01
[14]	-7.16	-7.47	-4.48	-8.83	-4.17

Conditions	drug sensitivity score
[15]	0
[16]	23.1
[17]	0
[18]	3.26
[19]	9.09
[20]	0
[21]	0
[22]	11.1
[23]	0
[24]	0
[25]	1.95
[26]	0
[27]	0
[28]	0
